Source: the supplement of paper PMC10307832

Assays:
Experiment in all cases: relative viability (nuclei count vs DMSO), 5 days (fraction); higher = more cells survive
[1] = compound: O=c1[nH]cc(F)c(=O)[nH]1 [5-Fluorouracil] + Cc1cc(Nc2cc(N3CCN(C)CC3)nc(Sc3ccc(NC(=O)C4CC4)cc3)n2)n[nH]1 [Tozasertib] (partner 0.1 µM)
Summary of the method: (§1)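 The day after seeding in 1536-well plates, lung cancer cell lines were treated by pin tool with a single drug, or with a fixed anchor-drug dose together with five library-drug doses (not always all listed) in √10 steps. After 5 days, a combined fix-and-stain solution (final 0.05% Triton X-100, 1% formaldehyde, 1 ug/ml Hoechst) was added. Nuclei counted on 4× images gave relative viability as treated counts over vehicle counts, reported as the median of duplicate plates.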

[2] = compound: O=c1[nH]cc(F)c(=O)[nH]1 [5-Fluorouracil] + Cc1nc(NC(=O)N2CCC[C@H]2C(N)=O)sc1-c1ccnc(C(C)(C)C(F)(F)F)c1 [Alpelisib] (partner 2 µM)
Summary of the method: as §1

5-Fluorouracil + OSI-027 = compound: O=c1[nH]cc(F)c(=O)[nH]1 [5-Fluorouracil] + COc1cccc2cc(-c3nc([C@H]4CC[C@H](C(=O)O)CC4)n4ncnc(N)c34)[nH]c12 [OSI-027] (partner 0.5 µM)
Summary of the method: as §1

[3] = compound: O=c1[nH]cc(F)c(=O)[nH]1 [5-Fluorouracil] + C[C@@H](Oc1cc(-c2cnn(C3CCNCC3)c2)cnc1N)c1c(Cl)ccc(F)c1Cl [Crizotinib] (partner 1 µM)
Summary of the method: as §1

[4] = compound: O=c1[nH]cc(F)c(=O)[nH]1 [5-Fluorouracil] + COc1cc2c(Oc3ccc(NC(=O)C4(C(=O)Nc5ccc(F)cc5)CC4)cc3F)ccnc2cc1OCCCN1CCOCC1 [Foretinib] (partner 0.25 µM)
Summary of the method: as §1

Cell Line	relative viability ([1]; first compound 0.02 µM)	relative viability ([1]; first compound 0.2 µM)	relative viability ([1]; first compound 0.6325 µM)	relative viability ([1]; first compound 2 µM)	relative viability ([2]; first compound 0.02 µM)	relative viability ([2]; first compound 0.2 µM)	relative viability ([2]; first compound 0.6325 µM)	relative viability ([2]; first compound 2 µM)	relative viability (5-Fluorouracil + OSI-027; first compound 0.02 µM)	relative viability (5-Fluorouracil + OSI-027; first compound 0.2 µM)	relative viability (5-Fluorouracil + OSI-027; first compound 0.6325 µM)	relative viability (5-Fluorouracil + OSI-027; first compound 2 µM)	relative viability ([3]; first compound 0.02 µM)	relative viability ([3]; first compound 0.2 µM)	relative viability ([3]; first compound 0.6325 µM)	relative viability ([3]; first compound 2 µM)	relative viability ([4]; first compound 0.02 µM)	relative viability ([4]; first compound 0.2 µM)	relative viability ([4]; first compound 0.6325 µM)	relative viability ([4]; first compound 2 µM)
NCI-H23	0.544	0.327	0.318	0.189	0.687	0.728	0.425	0.312	0.618	0.56	0.388	0.252	0.613	0.619	0.415	0.305	1.08	0.825	0.52	0.431
NCI-H322M	0.511	0.495	0.391	0.323	0.772	0.785	0.609	0.5	0.534	0.563	0.486	0.449	1.09	0.807	0.699	0.491	0.976	0.84	0.749	0.446
NCI-H358	0.132	0.104	0.0975	0.103	0.935	0.817	1.04	0.434	0.819	0.888	0.508	0.289	0.965	0.664	0.671	0.282	0.71	0.918	0.657	0.308
NCI-H441	0.701	0.468	0.372	0.343	0.792	0.644	0.563	0.411	0.779	0.523	0.322	0.326	0.511	0.767	0.388	0.333	1.01	0.887	0.558	0.361
NCI-H460	0.459	0.13	0.106	0.0388	0.389	0.345	0.136	0.0626	0.803	0.35	0.0996	0.0548	1	0.44	0.186	0.0322	1.02	0.73	0.156	0.0731
NCI-H520		0.484	0.438	0.329	0.537	0.975	0.717	0.383	0.191	0.294	0.252	0.226	0.819	0.832	0.6	0.372	0.555	0.697	0.641	0.563
NCI-H596	0.939	0.845	0.479	0.364	0.357	0.449	0.497	0.381	0.832	0.82	0.623	0.337	0.971	0.788	0.64	0.578	0.76	0.794	0.572	0.488
NCI-H647	0.146	0.415	0.232	0.243	0.897	0.915	1.06	0.767	0.616	0.724	0.464	0.378	1.13	1.1	0.941	0.692	1.25	1.32	0.997	0.796
